# Values of other authors, collected in patent US8841073B2, “Methods for identifying RNA segments bound by RNA-binding proteins or ribonucleoprotein complexes” (The Rockefeller University, priority 2008, dated 2014).
# System: cells
# Settings: exposure longer than 24 hrs in culture medium; cited from earlier work
compound,measurement,value
"Nc1nc2c(ncn2[C@@H]2O[C@H](CO)[C@@H](O)[C@H]2O)c(=S)[nH]1 [6SG, 6-thioguanosine]",concentration above which cytotoxicity is noticeable,above 100 μM
